Measured values: US8586527B2, “Cerivastatin to treat pulmonary disorders” (priority 2011, dated 2013)

How the values were obtained:
[1] = test system: pulmonary aterial hypertension; conditions: injected intraperitoneally; cited from earlier work
DDAH1 = DDAH1 gene expression (real-time RT-PCR) in endothelial cells; assay type: cell-based; conditions: human umbilical endothelial cells, 24 hours, FIG. 1A
Description: (§1) Human umbilical endothelial cells were seeded in 6-well plates (50,000 cells per well) and incubated with EGM (endothelial cell growth medium with bullet kit, Lonza) overnight. Then, triplicate wells were treated with indicated concentrations of cerivastatin in 2 ml of EGM. After 24 hours, total RNA was extracted using the RNeasy Kit (Qiagen, Valencia, Calif. After reverse transcription (RT) using the High Capacity cDNA Reverse Transcription Kit (Applied Biosystems, Foster City, Calif.), PCR was performed using an ABI Prism 7500 Sequence Detection System (Applied Biosystems, Foster City, Calif.) and QuantiTect SYBR Green PCR Master Mix (Qiagen, Valencia, Calif.). All reactions were carried out in triplicate, and each mRNA copy level was quantified using comparative CT method. Expression of actin was used as an endogenous control in all experiments and relative fold changes were calculated. All data were expressed as the means±standard deviation. The gene-specific forward and reverse primer sequences were • 5′-[…]-3′(SEQ ID NO: 2) and 5′-[…]-3′ (SEQ ID NO: 3) for actin; • 5′-[…]-3′ (SEQ ID NO: 4) and 5′-ggggtgttgaagcaat-3′ (SEQ ID NO: 5) for DDAH-1; • 5′-[…]-3′ (SEQ ID NO: 6) and 5′-[…]-3′ (SEQ ID NO: 7) for DDAH-2.

DDAH2 = DDAH2 gene expression (real-time RT-PCR) in endothelial cells; assay type: cell-based; conditions: human umbilical endothelial cells, 24 hours, dose dependent, FIG. 1B
Description: as §1

CCR2 = CCR2 gene expression (real-time RT-PCR) in THP-1 cells; assay type: cell-based; conditions: human THP-1 cells, TNF-α + 10 μM statin, FIG. 2B
Description: THP-1 cells were obtained from the American Tissue Type Culture Collection (ATCC). Cells were maintained in RPMI-1640 (Mediatech, Manassas, Va.) containing 10% fetal bovine serum (FBS; Sigma-Aldrich) and 1% penicillin/streptomycin (Sigma-Aldrich), and incubated in a humidified incubator containing 5% CO2/95% air at 37° C. In all experiments, cells were seeded at the concentration of 5×10^5 cells/mL in 12 well plates and then various statins were added to the medium. After 1 h, […] at a final concentration of 100 ng/ml or TNF-[…] at a final concentration of 10 ng/mL was added to the cultures. Cell pellets were collected for RNA and protein isolation.
Total RNA was extracted using the RNeasy Kit (Qiagen, Valencia, Calif.) according to the manufacturer's instructions. After reverse transcription (RT) using the High Capacity cDNA Reverse Transcription Kit (Applied Biosystems, Foster City, Calif.), PCR was performed using an ABI Prism 7500 Sequence Detection System (Applied Biosystems, Foster City, Calif.) and QuantiTect SYBR Green PCR Master Mix (Qiagen, Valencia, Calif.). All reactions were carried out in triplicate, and each mRNA copy level was quantified using comparative CT method. Expression of actin was used as an endogenous control in all experiments and relative fold changes were calculated. All data were expressed as the means±standard deviation. […]

rat model of PAH [2] = assay: PA pressure by right heart catheterization in MCT rat model of PAH; assay type: in vivo; conditions: intratracheal, twice weekly, 2 mg/ml in PBS, day 42, relative to MCT injection PAH model
Description: (§2) PAH was induced in adult male Sprague-Dawley rats (˜375 to 425 g, n=12, Harlan Laboratories) by a single, subcutaneous injection of monocrotnil (MCT) (60 mg/kg; n=24). Schultze, A. E. and Roth, R. A. J. Toxicol. Environ. Health. B, Crit. Rev. 1(4): 271-346 (1998). The animals injected with MCT were randomly assigned to 2 groups that received intratracheal (I.T.) aerosol instillation (MicroSprayer® Aerosolizer Model IA-1B, PennCentury, Inc.) of PBS twice weekly (200 μl; n=6), and a second group received IT. aerosol instillation of Cerivastatin twice weekly (2 mg/ml in PBS; n=6 I.T. instillations of PBS and Cerivastatin were administered the day of MCT injection until the rats were euthanized on day 42.
Echocardiography was performed at day 14, 28, and 42. Right heart catheterization was performed on day 42 before being euthanized. Sedation was induced by placing the rat in an anesthesia induction chamber with gas flow at 1 l/min, and the isoflurane was delivered via vaporizer at 3-4%. After induction, the rat was intubated and remained anesthetized with inhalant isoflurane at 1% for echo and 2% for right heart catheterization.
A 1.4-F micromanometer-tipped Millar pressure catheter (Millar Instruments) was used to measure systolic (sPAP), mean (mPAP), and diastolic PA pressure (dPAP) in all rats. […]

rat model of PAH [3] = assay: Echocardiography in MCT rat model of PAH; assay type: in vivo; conditions: intratracheal, twice weekly, 2 mg/ml in PBS
Description: PAH was induced in adult male Sprague-Dawley rats ( 375 to 425 g, n=12, Harlan Laboratories) by a single, subcutaneous injection of monocrotnil (MCT) (60 mg/kg; n=24). Schultze, A. E. and Roth, R. A. J. Toxicol. Environ. Health. B, Crit. Rev. 1(4): 271-346 (1998). The animals injected with MCT were randomly assigned to 2 groups that received intratracheal (I.T.) aerosol instillation (MicroSprayer® Aerosolizer Model IA-1B, PennCentury, Inc.) of PBS twice weekly (200 μl; n=6), and a second group received IT. aerosol instillation of Cerivastatin twice weekly (2 mg/ml in PBS; n=6 I.T. instillations of PBS and Cerivastatin were administered the day of MCT injection until the rats were euthanized on day 42. Echocardiography was performed at day 14, 28, and 42. Right heart catheterization was performed on day 42 before being euthanized. Sedation was induced by placing the rat in an anesthesia induction chamber with gas flow at 1 l/min, and the isoflurane was delivered via vaporizer at 3-4%. After induction, the rat was intubated and remained anesthetized with inhalant isoflurane at 1% for echo and 2% for right heart catheterization. After shaving the chest, 70% isopropyl alcohol was applied as the ultrasound transmission media and transthoracic echocardiography was performed (GE vivid i with […]-RS linear array transducer, 5.0-13.0 MHz). The 2-D modality was applied to measure PA diameter at the level of the pulmonary outflow tract from the parasternal short-axis view. PA acceleration time (PAAT) and PA flow velocity time integral (VTI) were measured using pulse-wave Doppler with the sample volume centrally positioned in the PA distal to the pulmonary valve. Angle correction was used to adjust the pulse-wave cursor such that it was positioned parallel to pulmonary artery flow. By combining PA VTI with the PA cross-sectional area, echocardiographically derived stroke volume was determined. M-mode was applied to measure right ventricular cavity thickness during end diastole using the parasternal long-axis view obtained from the right side of the rat.

rat model of PAH [4] = assay: RV hypertrophy (RV weight ratio) in MCT rat model of PAH; assay type: in vivo; conditions: intratracheal, twice weekly, 2 mg/ml in PBS, day 42, relative to MCT injection PAH model, FIG. 6
Description: as §2, with “42. After recording hemodynamic measurements and collecting blood, the animals were euthanized under deep anesthesia (isoflurane 5%) and the lungs and heart were isolated. The RV free wall was dissected from the left ventricle and interventricular septum (IVS), and the wet weight of each was recorded. RV hypertrophy was obtained as a RV weight/(LV+IVS weights) ratio.” for “42.”

| SMILES | improvement of pulmonary arterial hypertension [1] | effect on the expression of DDAH1 (relative mRNA level) (DDAH1) | effect on the expression of DDAH2 (relative mRNA level) (DDAH2) | CCR2 expression (CCR2) | systolic pulmonary artery pressure (sPAP) (rat model of PAH [2]; FIG. 3) | mean pulmonary artery pressure (mPAP) (rat model of PAH [2]; FIG. 4) | pulmonary artery acceleration time (PAAT) (rat model of PAH [3]; FIG. 7A (plotted in ms)) | mean right ventricle thickening (RV cavity thickness) (rat model of PAH [3]; relative to MCT injection PAH model, FIGS. 5A and 5B) | PAAT as percent of the control (rat model of PAH [3]; MCT alone 40.5% of the control, FIG. 7B) | right ventricular (RV) weight ratio (RV/(LV+septum)) (rat model of PAH [4]) |
| --- | --- | --- | --- | --- | --- | --- | --- | --- | --- | --- |
| CC(C)c1c(C(=O)Nc2ccccc2)c(-c2ccccc2)c(-c2ccc(F)cc2)n1CC[C@@H](O)C[C@@H](O)CC(=O)O [atorvastatin] | not | – | – | – | – | – | – | – | – | – |
| COCc1c(C(C)C)nc(C(C)C)c(/C=C/[C@@H](O)C[C@@H](O)CC(=O)O)c1-c1ccc(F)cc1 [cerivastatin, (3R,5S,6E)-7-[4-(4-fluorophenyl)-5-(methoxymethyl)-2,6-bis(propan-2-yl)pyridin-3-yl]-3,5-dihydroxyhept-6-enoic acid] | – | relatively small and non-concentration dependent effect | more than 600% | reduces CCR2 | statistically significant decrease | statistically significant decrease | significantly increased | significantly reduced | 60.7 % of the control | significantly reduced |
